Legend:
Settings in all cases: cattle
Albumin [1] = molecular target: T1, Albumin (Bos taurus, UniProt P02769); assay: Binding affinity to bovine serum albumin at pH 7.4 at 310K in presence of Fe3+ by fluorescence quenching logarithmic plot
Albumin [2] = molecular target: T1, Albumin; assay: Binding affinity to bovine serum albumin at pH 7.4 at 310K in presence of Cu2+ by fluorescence quenching logarithmic plot
Albumin [3] = molecular target: T1, Albumin; assay: Binding affinity to bovine serum albumin using 3x10'-6 Lmol'-1 at pH 7.4 at 310K by Stern-Volmer plot
Albumin [4] = molecular target: T1, Albumin; assay: Binding affinity to bovine serum albumin at pH 7.4 at 310K by fluorescence quenching logarithmic plot
Albumin [5] = molecular target: T1, Albumin; assay: Binding affinity to bovine serum albumin at pH 7.4 at 310K in presence of Cu2+ by fluorescence quenching
Albumin [6] = molecular target: T1, Albumin; assay: Binding affinity to bovine serum albumin using 6x10'-6 Lmol'-1 at pH 7.4 at 310K by Stern-Volmer plot
Albumin [7] = molecular target: T1, Albumin; assay: Binding affinity to bovine serum albumin at pH 7.4 at 310K in presence of Fe3+ by fluorescence quenching
Albumin [8] = molecular target: T1, Albumin; assay: Binding affinity to bovine serum albumin at pH 7.4 at 310K by fluorescence quenching
Albumin [9] = molecular target: T1, Albumin; assay: Binding affinity to bovine serum albumin using 4.5x10'-6 Lmol'-1 at pH 7.4 at 310K by Stern-Volmer plot

T1 sequence (P02769 whole entry): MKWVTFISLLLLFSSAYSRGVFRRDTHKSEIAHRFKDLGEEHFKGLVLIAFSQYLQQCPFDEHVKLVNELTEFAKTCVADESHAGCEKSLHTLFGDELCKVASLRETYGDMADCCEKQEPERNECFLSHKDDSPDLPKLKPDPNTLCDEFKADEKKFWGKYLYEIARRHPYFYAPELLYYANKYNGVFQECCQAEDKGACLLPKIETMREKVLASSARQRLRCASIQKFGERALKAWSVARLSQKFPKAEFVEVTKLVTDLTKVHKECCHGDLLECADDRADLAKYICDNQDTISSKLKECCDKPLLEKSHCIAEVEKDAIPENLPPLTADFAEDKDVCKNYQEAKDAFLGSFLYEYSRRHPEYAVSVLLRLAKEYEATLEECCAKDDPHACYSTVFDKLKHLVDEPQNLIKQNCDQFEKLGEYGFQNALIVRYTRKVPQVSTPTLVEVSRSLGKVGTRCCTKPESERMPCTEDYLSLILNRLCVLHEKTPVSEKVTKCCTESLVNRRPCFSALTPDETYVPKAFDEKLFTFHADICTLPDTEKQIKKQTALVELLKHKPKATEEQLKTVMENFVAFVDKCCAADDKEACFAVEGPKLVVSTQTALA

- K (Albumin [1]): 4.85 ×10⁴ L/mol
- K (Albumin [2]): 1.88 ×10⁵ L/mol
- KSV (Albumin [3]): 2.11 ×10⁵ L/mol
- Kq (Albumin [3]): 4.22 ×10¹³ L/mol/s
- K (Albumin [4]): 2.7 ×10⁵ L/mol
- KSV (Albumin [5]): 1.76 ×10⁵ L/mol
- Kq (Albumin [5]): 3.52 ×10¹³ L/mol/s
- KSV (Albumin [6]): 1.51 ×10⁵ L/mol
- Kq (Albumin [6]): 3.02 ×10¹³ L/mol/s
- KSV (Albumin [7]): 1.6 ×10⁵ L/mol
- Kq (Albumin [7]): 3.2 ×10¹³ L/mol/s
- KSV (Albumin [8]): 1.96 ×10⁵ L/mol
- Kq (Albumin [8]): 3.92 ×10¹³ L/mol/s
- KSV (Albumin [9]): 1.96 ×10⁵ L/mol
- Kq (Albumin [9]): 3.92 ×10¹³ L/mol/s
Compound: O=c1cc(-c2ccccc2)oc2cc(O)c(O)c(O)c12 [BAICALEIN]

From ChEMBL document CHEMBL1667764, “Characterization of the baicalein-bovine serum albumin complex without or with Cu2+ or Fe3+ by spectroscopic approaches” (Eur J Med Chem, 2011)
